In the OligoGym collection one finds normalised inhibition (eCFP-eYFP dual reporter) data, which are given here for 35 substances.

Series [1] concerns the target UBE2B. The series is described as follows: reporter assay of Huesken 2005. Particulars: siRNA.
For series [2], the target named is UBE2E3. The series can be described thus: reporter assay of Huesken 2005. Particulars: siRNA.

Oligonucleotides are written 5' to 3', each unit as a sugar letter and its base; * is a phosphorothioate linkage, no mark a phosphodiester; rarer units and linkages stand in square brackets, end groups in braces. Plain capitals give the bases only. d = 2'-deoxy (DNA); r = 2'-OH (RNA)
Further: test concentration or dose not given here.

In turn, “sense rGrCrArCrArGrCrUrUrUrArUrCrArGrGrArArAdTdT / antisense rUrUrUrCrCrUrGrArUrArArArGrCrUrGrUrGrCdTdG” had a normalised inhibition (eCFP-eYFP dual reporter) in series [1] of 83.8%.

Turning to “sense rArUrUrUrUrCrUrGrArArGrArArUrArUrCrCrAdTdT / antisense rUrGrGrArUrArUrUrCrUrUrCrArGrArArArArUdTdC”, the normalised inhibition (eCFP-eYFP dual reporter) in series [1] amounted to 63.7%.

Take “sense rUrArUrGrArArGrGrUrGrGrUrGrUrGrUrUrUrUdTdT / antisense rArArArArCrArCrArCrCrArCrCrUrUrCrArUrAdTdA”: in series [2], the normalised inhibition (eCFP-eYFP dual reporter) was determined as 50.1%.

In the case of “sense rArCrArUrCrArArCrArGrUrCrArGrGrGrArGrUdTdT / antisense rArCrUrCrCrCrUrGrArCrUrGrUrUrGrArUrGrUdTdG”, the normalised inhibition (eCFP-eYFP dual reporter) in series [2] stood at 69.9%.

“sense rArCrArCrCrArArArCrUrCrUrCrUrArGrCrArAdTdT / antisense rUrUrGrCrUrArGrArGrArGrUrUrUrGrGrUrGrUdTdT”: in series [2], the normalised inhibition (eCFP-eYFP dual reporter) was found to be 90.1%.

Substance “sense rGrUrGrCrUrArArArArGrArArUrUrCrArGrArAdTdT / antisense rUrUrCrUrGrArArUrUrCrUrUrUrUrArGrCrArCdTdA” came in with a normalised inhibition (eCFP-eYFP dual reporter) in series [2] of 81.5%.

The substance “sense rArUrUrUrArArGrCrCrArCrCrArArArGrGrUrUdTdT / antisense rArArCrCrUrUrUrGrGrUrGrGrCrUrUrArArArUdGdG” yielded a normalised inhibition (eCFP-eYFP dual reporter) in series [2] of 64.2%.

“sense rUrUrArUrCrCrArUrUrUrArArGrCrCrArCrCrAdTdT / antisense rUrGrGrUrGrGrCrUrUrArArArUrGrGrArUrArAdTdC” displayed a normalised inhibition (eCFP-eYFP dual reporter) in series [2] of 28.7%.

Take “sense rArGrArUrCrArArCrUrArUrArCrUrUrGrGrUrCdTdT / antisense rGrArCrCrArArGrUrArUrArGrUrUrGrArUrCrUdCdC”: the normalised inhibition (eCFP-eYFP dual reporter) in series [2] turned out to be 52.8%.

“sense rArArCrArGrArGrCrArGrArArCrArCrGrArCrAdTdT / antisense rUrGrUrCrGrUrGrUrUrCrUrGrCrUrCrUrGrUrUdGdG”: the normalised inhibition (eCFP-eYFP dual reporter) in series [2] was 76.9%.

Consider “sense rGrGrArGrCrUrArGrCrUrGrArArArUrArArCrCdTdT / antisense rGrGrUrUrArUrUrUrCrArGrCrUrArGrCrUrCrCdTdT”, for which the normalised inhibition (eCFP-eYFP dual reporter) in series [2] is 80.5%.

“sense rGrCrUrGrGrGrCrCrUrArArArGrGrArGrArUrAdTdT / antisense rUrArUrCrUrCrCrUrUrUrArGrGrCrCrCrArGrCdAdC”: in series [2], the normalised inhibition (eCFP-eYFP dual reporter) was determined as 67.2%.

Take “sense rGrArUrArUrCrArCrArUrUrUrUrCrArUrCrArGdTdT / antisense rCrUrGrArUrGrArArArArUrGrUrGrArUrArUrCdCdA”: the normalised inhibition (eCFP-eYFP dual reporter) in series [2] turned out to be 57.6%.

Take “sense rUrArArArGrArCrArArCrUrGrGrArGrUrCrCrCdTdT / antisense rGrGrGrArCrUrCrCrArGrUrUrGrUrCrUrUrUrAdAdG”: in series [2], the normalised inhibition (eCFP-eYFP dual reporter) turned out to be 43.8%.

Substance “sense rArGrUrCrCrCrGrCrUrUrUrGrArCrUrArUrUrUdTdT / antisense rArArArUrArGrUrCrArArArGrCrGrGrGrArCrUdCdC” registered a normalised inhibition (eCFP-eYFP dual reporter) in series [2] of 56.7%.

On to “sense rGrArCrCrArGrCrGrArGrArCrCrCrArGrCrCrGdTdT / antisense rCrGrGrCrUrGrGrGrUrCrUrCrGrCrUrGrGrUrCdCdG”, for which the normalised inhibition (eCFP-eYFP dual reporter) in series [2] is 54.7%.

Turning to “sense rUrArArUrUrGrCrArGrUrGrCrUrGrGrGrCrCrUdTdT / antisense rArGrGrCrCrCrArGrCrArCrUrGrCrArArUrUrAdGdG”, in series [2], the normalised inhibition (eCFP-eYFP dual reporter) is 47.3%.

Turning to “sense rUrCrUrGrGrArUrArUrCrArCrArUrUrUrUrCrAdTdT / antisense rUrGrArArArArUrGrUrGrArUrArUrCrCrArGrAdAdA”, the normalised inhibition (eCFP-eYFP dual reporter) in series [2] amounted to 68.8%.

In turn, “sense rUrGrUrCrUrArUrUrUrGrUrUrCrCrCrUrUrUrUdTdT / antisense rArArArArGrGrGrArArCrArArArUrArGrArCrAdGdC” registered a normalised inhibition (eCFP-eYFP dual reporter) in series [2] of 86%.

In series [2], “sense rCrCrUrUrGrArUrCrCrUrCrCrUrCrCrUrArArUdTdT / antisense rArUrUrArGrGrArGrGrArGrGrArUrCrArArGrGdGdT” returned a normalised inhibition (eCFP-eYFP dual reporter) of 81.6%.

Regarding “sense rGrArArGrGrArGrCrUrArGrCrUrGrArArArUrAdTdT / antisense rUrArUrUrUrCrArGrCrUrArGrCrUrCrCrUrUrCdTdG”, in series [2], the normalised inhibition (eCFP-eYFP dual reporter) was 88.5%.

“sense rCrArGrUrGrCrUrGrGrGrCrCrUrArArArGrGrAdTdT / antisense rUrCrCrUrUrUrArGrGrCrCrCrArGrCrArCrUrGdCdA” returned a normalised inhibition (eCFP-eYFP dual reporter) in series [2] of 73.2%.

Turning to “sense rUrArCrUrUrUrCrCrGrCrArCrCrArGrArArUrCdTdT / antisense rGrArUrUrCrUrGrGrUrGrCrGrGrArArArGrUrAdAdC”, the normalised inhibition (eCFP-eYFP dual reporter) in series [2] was determined as 49.2%.

“sense rGrGrArGrArUrArArCrArUrUrUrArUrGrArArUdTdT / antisense rArUrUrCrArUrArArArUrGrUrUrArUrCrUrCrCdTdT” registered a normalised inhibition (eCFP-eYFP dual reporter) in series [2] of 75.8%.

Take “sense rUrCrArArCrArGrUrCrArGrGrGrArGrUrCrArUdTdT / antisense rArUrGrArCrUrCrCrCrUrGrArCrUrGrUrUrGrAdTdG”: in series [2], the normalised inhibition (eCFP-eYFP dual reporter) came out at 74.7%.

“sense rArCrUrArUrUrUrCrArArArGrGrUrUrUrUrGrCdTdT / antisense rGrCrArArArArCrCrUrUrUrGrArArArUrArGrUdCdA” registered a normalised inhibition (eCFP-eYFP dual reporter) in series [2] of 34.3%.

For “sense rArCrArGrGrArUrArGrCrCrArGrArCrArGrUrGdTdT / antisense rCrArCrUrGrUrCrUrGrGrCrUrArUrCrCrUrGrUdCdG”, in series [2], the normalised inhibition (eCFP-eYFP dual reporter) amounted to 55.2%.

As for “sense rCrUrCrCrUrCrCrUrArArUrUrGrCrArGrUrGrCdTdT / antisense rGrCrArCrUrGrCrArArUrUrArGrGrArGrGrArGdGdA”, the normalised inhibition (eCFP-eYFP dual reporter) in series [2] worked out at 34.3%.

“sense rCrCrArArCrArGrArGrCrArGrArArCrArCrGrAdTdT / antisense rUrCrGrUrGrUrUrCrUrGrCrUrCrUrGrUrUrGrGdTdC” had a normalised inhibition (eCFP-eYFP dual reporter) in series [2] of 88.8%.

Substance “sense rUrCrArGrArArGrGrArGrCrUrArGrCrUrGrArAdTdT / antisense rUrUrCrArGrCrUrArGrCrUrCrCrUrUrCrUrGrAdAdT” returned a normalised inhibition (eCFP-eYFP dual reporter) in series [2] of 87.4%.

In series [2], “sense rCrArArCrCrCrUrGrCrGrGrArUrCrCrUrCrUrGdTdT / antisense rCrArGrArGrGrArUrCrCrGrCrArGrGrGrUrUrGdCdA” displayed a normalised inhibition (eCFP-eYFP dual reporter) of 56.3%.

On to “sense rCrCrArArArCrUrCrUrCrUrArGrCrArArArArCdTdT / antisense rGrUrUrUrUrGrCrUrArGrArGrArGrUrUrUrGrGdTdG”, for which the normalised inhibition (eCFP-eYFP dual reporter) in series [2] came out at 69.8%.

In turn, “sense rGrUrCrArGrGrGrArGrUrCrArUrCrUrGrUrCrUdTdT / antisense rArGrArCrArGrArUrGrArCrUrCrCrCrUrGrArCdTdG” had a normalised inhibition (eCFP-eYFP dual reporter) in series [2] of 83.4%.

In turn, “sense rCrArCrCrArArArGrGrUrUrArCrUrUrUrCrCrGdTdT / antisense rCrGrGrArArArGrUrArArCrCrUrUrUrGrGrUrGdGdC” registered a normalised inhibition (eCFP-eYFP dual reporter) in series [2] of 58.8%.

In series [2], “sense rGrCrCrArCrUrCrArGrUrArUrUrUrGrArCrCrAdTdT / antisense rUrGrGrUrCrArArArUrArCrUrGrArGrUrGrGrCdTdA” showed a normalised inhibition (eCFP-eYFP dual reporter) of 90.9%.
